Laboratory results as given in paper PMC8476055, “Synthesis and Biological Activity of Triterpene–Coumarin Conjugates” (Journal of Natural Products, 2021).
Several values for one entry are separate records, joined by “and”; a condition that tells them apart may be missing. Equal entries are not always repeated.

Key:
[1] = system: B16–F10 murine melanoma cells; experiment: MTT cell proliferation assay, B16–F10 cells; format: cell-based; conditions: Mus musculus, 72 h treatment, untreated control = 100% viability, read-out: IC50, growth inhibition of B16–F10 cells
Method: (§1) These studies were performed using a 3-(4,5-dimethylthiazol-2-yl)-2,5-diphenyltetrazolium bromide (MTT) assay, with increasing concentration levels of each compound (0–200 μg/mL). Cell viability was determined after treatment for 72 h, by absorption of a formazan dye.
(§2) […] ATTC HTB-38), Hep G2 human hepatocyte carcinoma cells (ECACC 85011430), nontumor human epithelial lung fibroblast cells HPF (ScienCell catalog (cat.) no. 3300), nontumor rat ileum cells IEC-18 (ECACC no. 88011801), and nontumor human embryo liver cells (ECACC 89121403) were cultured in DMEM medium supplemented with 2 mM glutamine, 10% heat-inactivated fetal bovine serum (FCS), 10.000 units/mL penicillin, and […]. These cells were incubated at 37 °C in an atmosphere of 5% CO2 and 95% humidity. The culture media were changed every 48 h, and the confluent cultures were separated with a trypsin solution (0.25% EDTA). Subconfluent monolayer cells were used in all experiments. All cell lines used were provided by the cell bank of the University of Granada (Spain).
(§3) The effect of the synthesized compounds on the viability of tumor cells was assessed using an MTT assay, based on the ability of living cells to cleave the tetrazolium ring, thus producing formazan, which absorbs at 570 nm. […] For an evaluation of the cytotoxic effects of these compounds, the cells were seeded in 96-well plates at an initial density of 5 × 10^3 B16–F10 cells, 6 × 10^3 HT29 cells, 15 × 10^3 Hep G2 cells, 8 × 10^3 HPF cells, 15 × 10^3 IEC-18 cells, and 11 × 10^3 WRL68 cells, per well. After incubation for 24 h, the cells were treated with the synthesized compounds in triplicate, at different concentrations (0–200 μg/mL), and incubated for 72 h. Thereafter, 100 μL of MTT solution (0.5 mg/mL) were added to each well. After 2 h of incubation, the cells were washed twice with phosphate buffered saline (PBS), and the formazan was resuspended in 100 μL of DMSO. Relative cell viability, with respect to untreated control cells, was measured by absorbance at 550 nm on an ELISA plate reader (Tecan Sunrise MR20-301, TECAN, Austria). […] These experiments were measured and compared to the control after 72 h of treatment.

[2] = system: Hep G2 human hepatocyte carcinoma cells; experiment: MTT cell proliferation assay, Hep G2 cells; format: cell-based; conditions: HepG2, 72 h treatment, untreated control = 100% viability, read-out: IC50, growth inhibition of Hep G2 cells
Method: as §1, §2, §3

[3] = system: B16–F10 cells; experiment: Annexin V-FITC/PI flow cytometry (apoptosis), B16–F10; format: cell-based, murine; conditions: B16-F10, 72 h at IC50 concentration, mean ± S.E.M.
Method: (§4) In consideration of the cytotoxic results of these triterpene conjugates with the three cell lines assayed, three MA–diamine–coumarin conjugates (1, 4, and 7) and the MA–coumarin conjugate 10 were selected for the following cytometry studies on the three cancer cell lines. Thus, the apoptotic determination assays were performed through double staining with Annexin V (An-V), conjugated fluorescein isothiocyanate (FITC), and propidium iodide (PI). […] The values of percentage of total apoptosis were expressed as means ± SEM of at least two duplicate experiments (Figure 1).
(§5) Apoptosis was assessed by flow cytometry using a FACScan (fluorescence-activated cell sorter) flow cytometer (Coulter Corporation, Hialeah, FL, USA). For these assays, 5 × 10^4 B16–F10, 6 × 10^4 HT29 cells, and 15 × 10^4 Hep G2 cells were placed in 24-well plates with 1.5 mL of medium and incubated for 24 h. Subsequently, the cells were treated with the selected compounds in triplicate for 72 h at their corresponding IC50 concentrations. The cells were collected and resuspended in a binding buffer (10 mM HEPES/NaOH, pH 7.4, 140 mM NaCl, 2.5 mM CaCl2). Annexin V-FITC conjugate (1 mg/mL) was then added and incubated for 15 min at room temperature in darkness. Just before the analysis by flow cytometry, cells were stained with 20 μL of 1 mg/mL PI solution. In each experiment, approximately 10 × 10^3 cells were analyzed, and the experiment was duplicated twice.

[4] = system: HT29 cells; experiment: Annexin V-FITC/PI flow cytometry (apoptosis), HT29; format: cell-based, human; conditions: HT29, 72 h at IC50 concentration, mean ± S.E.M.
Method: as §4, §5

[5] = system: B16–F10 cells; experiment: Cell-cycle distribution by PI flow cytometry, B16–F10; format: cell-based, murine; conditions: B16–F10, 72 h at IC50 concentration
Method: Based on the cytotoxicity shown by derivatives 1, 4, 7, and 10, a study was made concerning their effects on the distribution of the cell cycle in order to determine possible cytostatic effects caused by the cytotoxic response. The percentages of cells in the different phases of the cycle were analyzed at 72 h, by the incorporation of propidium iodide. […] The values of cell percentage were expressed as means ± SEM of at least two independent experiments performed in triplicate. Flow cytometry was also used to measure DNA ploidy and alterations in cell-cycle profiles. The DNA content is proportional to the fluorescence of propidium iodide, enabling the percentage of cells to be determined in each phase of the cycle and the cell subpopulations with different DNA contents to be visualized.
The method used to quantify the amount of DNA in the different phases of the cell cycle (G0/G1, S, and G2/M) was performed by flow cytometry, using a fluorescence-activated cell sorter (FACS) at 488 nm in an Epics XL flow cytometer (Coulter Corporation, Hialeah, FL, USA). For this assay, 5 × 10^4 B16–F10, 6 × 10^4 HT29 cells, and 15 × 10^4 Hep G2 cells were placed in 24-well plates with 1.5 mL of medium and incubated for 24 h. After this time, the cells were treated with the different selected compounds for 72 h at their corresponding IC50 concentrations. After treatment, the cells were washed twice with PBS, trypsinized, and resuspended in 1X TBS (10 mM Tris and 150 mM NaCl); thereafter, Vindelov buffer (100 mM Tris, 100 mM NaCl, 10 mg/mL Rnase, and 1 mg/mL PI, at pH 8) was added. Cells were stored on ice and, just before measurement, were stained with 10 μL of 1 mg/mL PI solution. Approximately, 10 × 10^3 cells were analyzed in each experiment. The experiments were performed three times with two replicates per assay.

Row | Structure (SMILES) | IC50 [1] | IC50 [2] | Early Apoptosis [3] | Late Apoptosis [3] | Necrosis [3] | Total Apoptosis [3] | Viable Cells [3] | Early Apoptosis [4] | Late Apoptosis [4] | Necrosis [4] | Total Apoptosis [4] | Viable Cells [4] | percentage of cells in the G0/G1 phase [5] | melting point
1 | CC1(C)CC[C@]2(C(=O)NCCCNC(=O)/C=C/c3ccc(O)cc3)CC[C@]3(C)C(=CC[C@@H]4[C@@]5(C)C[C@@H](O)[C@H](O)C(C)(C)[C@@H]5CC[C@]43C)[C@@H]2C1 [Compound 7, 2α,3β-Dihydroxy-N-(3′-((E)-3″-(4‴-hydroxyphenyl)acrylamido)propyl)olean-12-en-28-amide] | 10.4 ± 0.2 µM | 8.8 ± 0.4 µM | 39.0 ± 4.1% | 18.6 ± 0.1% | 3.1 ± 0.6% | 57.6 ± 3.2% | 39.3 ± 3.5% | 16.2 ± 3.6% | 29.4 ± 1.6% | 1.5 ± 0.4% | 45.6 ± 2.0% | 52.9 ± 2.0% | greater than 70% | 123 to 125 °C
2 | CC1(C)CC[C@]2(C(=O)NCCCNC(=O)c3cc4ccccc4oc3=O)CC[C@]3(C)C(=CC[C@@H]4[C@@]5(C)C[C@@H](O)[C@H](O)C(C)(C)[C@@H]5CC[C@]43C)[C@@H]2C1 [Compound 1, 2α,3β-Dihydroxy-N-(3′-(2″-oxo-2″H-chromene-3″-carboxamido)propyl)olean-12-en-28-amide] | > 10 µM | > 10 µM | 48.5 ± 2.8% | 19.4 ± 4.2% | 1.7 ± 0.4% | 67.9 ± 1.5% | 30.5 ± 1.9% | 10.8 ± 0.6% | 29.2 ± 0.5% | 3.7 ± 0.9% | 40.0 ± 0.5% | 56.3 ± 1.3% |  | 69 to 71 °C
3 | CC1(C)CC[C@]2(C(=O)O)CC[C@]3(C)C(=CC[C@@H]4[C@@]5(C)C[C@@H](OC(=O)c6cc7ccccc7oc6=O)[C@H](OC(=O)c6cc7ccccc7oc6=O)C(C)(C)[C@@H]5CC[C@]43C)[C@@H]2C1 [Compound 10] | 0.6 µM | 0.9 µM | 18.1 ± 3.0% | 22.9 ± 3.8% | 5.7 ± 0.8% | 41.0 ± 1.7% | 53.4 ± 2.9% | 23.8 ± 4.2% | 34.1 ± 4.9% | 6.5 ± 0.0% | 57.9 ± 1.6% and 58% | 35.7 ± 2.3% | greater than 70% | 200 to 202 °C
4 | CC1(C)CC[C@]2(C(=O)NCCCNC(=O)Cc3cc(=O)oc4cc(O)ccc34)CC[C@]3(C)C(=CC[C@@H]4[C@@]5(C)C[C@@H](O)[C@H](O)C(C)(C)[C@@H]5CC[C@]43C)[C@@H]2C1 [Compound 4, 2α,3β-Dihydroxy-N-(3′-(2″-(7‴-hydroxy-2‴-oxo-2‴H-chromen-4‴-yl)acetamido)propyl)olean-12-en-28-amide] | > 10 µM | > 10 µM | 74.9 ± 2.6% | 10.5 ± 1.4% | 0.7 ± 0.0% | 85.4 ± 3.0% and 85% | 14.0 ± 3.9% | 32.0 ± 2.3% | 20.5 ± 3.0% | 6.2 ± 0.9% | 52.4 ± 3.0% | 41.4 ± 3.8% | greater than 70% | 143 to 145 °C
